Data set [1] in a line: Dissolution in pH-adjusted aqueous solution. The data set is classed as physicochemical. The note with it: pH adjusted to ˜6.6 (6.5-6.7). An excerpt:
The natural pH of tear fluid is 7.4; however, discomfort for the user will not be felt as long as the pH of the administered medication stays in the range of 6.6-7.8 (Sampath Kumar et al., “Recent Challenges and Advances in Ophthalmic Drug Delivery System,” in The Pharma Innovation, Vol. 1, No. 4 (2012)). Others administer eye drops at a pH of 5.5 and find this pH to be optimal.

The subject of data set [2] is cAMP levels. The note with it: in-vitro, in comparison to a control; cited from earlier work.
In data set [3] the test system is nitric oxide levels. The note with it: cited from earlier work.
Data set [4] has as its system ocular inflammatory disease. The note with it: cited from earlier work.
The subject of data set [5] is thrombus formation. The settings on record: arterial circulation of the brain, rabbit model; cited from earlier work.
The conditions of data set [6]: cited from earlier work; for peak plasma level: oral.
For data set [7] the following is noted: cited from earlier work.

Read-outs that look alike come from different tables or passages of the source.

For `OCCN(CCO)c1nc(N2CCCCC2)c2nc(N(CCO)CCO)nc(N3CCCCC3)c2n1` [dipyridamole, 2,6-bis (diethanolamino)-4,8-dipiperidinopyrimido [5,4-d] pyrimidine], in data set [1], the “dissolution in aqueous solution” value was “fully dissolves”. Also, the “effect on cAMP levels” value in data set [2] is on record as “negligible effect”. For the same molecule, the “effect on nitric oxide levels” value in data set [3] is listed as “increases nitric oxide levels”. Moreover, the “effect in ocular inflammatory disease” value in data set [4] (systemically administered) is “significant beneficial effect”; in data set [4] (topically administered (in liquid formulation)) it was “ineffective”. Besides, the “effect on thrombus formation” value in data set [5] is recorded as “reduce thrombus formation”. In addition, in data set [6] (IV or oral 20-50 mg, followed up to 60 hours), the “half-life, third phase of tri-exponential decline” value was 10 to 12 h. The figures for the peak plasma level entry in data set [6] (after a 25 mg dose) and in data set [6] (after a 75 mg dose) were “about 0.5 g/mL” and 1.6 µg/mL, respectively. For the same molecule, the distribution half-life entry in data set [6] (humans, after oral administration) was “about 3 hours”; in data set [6] (humans, intravenous (IV) administration) it was “about 25 minutes”. Further, the “time to peak plasma levels” value in data set [6] (humans, following oral administration) was 1 to 3 h. The “solubility in methanol” value in data set [7] (methanol) is recorded as “very soluble”. In addition, the “solubility in water” value in data set [7] (water) is “practically insoluble”.
